Measurements published in patent US10369145B2, “Coumarin derivatives and methods of use in treating hyperproliferative diseases” (DISCOVERYBIOMED, INC., priority 2013, dated 2019).

Key:
Assay type in all cases: cell-based
[1] = system: SK-MEL-28; experiment: NCI 60 panel: SK-MEL-28 (Melanoma)
Description: (§5) TGI means the drug concentration resulting in total growth inhibition or “cytostasis.” LC50 is the concentration of drug resulting in a 50% reduction in the measured cytosolic ATP at the end of the drug treatment as compared to that at the beginning, indicating a net loss of cells following treatment (cytotoxicity).

[2] = system: LOX IMVI; experiment: NCI 60 panel: LOX IMVI (Melanoma)
Description: as §5

[3] = system: primary human ADPKD cystic epithelial cell lines, ARCaP-M, CAKI-1; experiment: Viability in cystic ADPKD cells, prostate and kidney cancer lines
Description: (§1) The compounds described herein are effective for inhibiting cellular proliferation in hyperproliferative cell types. To study the effects of these compounds, an assay was developed to differentiate the effects of the compounds on proliferating versus confluent cells. The assay design generates a proliferating density 24 hours after seeding and provides a 3-day active cell growth/doubling window in which to gauge the anti-proliferative effect of the compounds described herein. […] In this 3-day growth window, cell number increases with daily doublings across the 72-hour period (see FIG. 1).
(§2) In each assay design, compounds were added at the 24-hour timepoint after cell seeding. The effect of the compounds, relative to vehicle control and to VelCade (a proteasome inhibitor approved in the U.S. for treating relapsed multiple myeloma and mantle cell lymphoma) as a positive control, was assessed across the 3-day growth window for proliferating cells and on an already near confluent culture of cells for the same time period. Normal cells were handled in the same manner, with some adjustment of seeding density needed in select cases. This assay design holds for the data series presented below.
Cell number at the end of the assay was determined using the CELLTITER-GLO Luminescent Cell Viability Assay (Promega; Madison, Wis.). The CELLTITER-GLO Luminescent Cell Viability Assay is a homogeneous method of determining the number of viable cells in culture based on quantitation of the ATP present, an indicator of metabolically active cells. IC50 values were calculated. Cell number (number of cells per well) was converted to the % of DMSO matched controls. Each measurement was performed in triplicate. Typical dosage ranges tested were from 250 picomolar to 50 micromolar.
The compounds as described herein were tested on primary human ADPKD cystic epithelial cell lines as well as two common cancer cell lines from the prostate (ARCaP-M) and kidney (CAKI-1).

[4] = system: U251; experiment: NCI 60 panel: U251 (CNS Cancer)
Description: as §5

[5] = system: KM12; experiment: NCI 60 panel: KM12 (Colon Cancer)
Description: as §5

[6] = system: OVCAR-5; experiment: NCI 60 panel: OVCAR-5 (Ovarian Cancer)
Description: as §5

[7] = system: UACC-257; experiment: NCI 60 panel: UACC-257 (Melanoma)
Description: as §5

[8] = system: SF-539; experiment: NCI 60 panel: SF-539 (CNS Cancer)
Description: as §5

[9] = system: HOP-92; experiment: NCI 60 panel: HOP-92 (Non-Small Cell Lung Cancer)
Description: as §5

[10] = system: SK-OV-3; experiment: Complementary DBM in vitro profiling: SK-OV-3 (Ovarian Cancer)
Description: as §1
as §2, with “This assay design holds for the data series presented below.” left out
(§3) Cell number at the end of the assay was determined using the CELLTITER-GLO Luminescent Cell Viability Assay (Promega; Madison, Wis.). The CELLTITER-GLO Luminescent Cell Viability Assay is a homogeneous method of determining the number of viable cells in culture based on quantitation of the ATP present, an indicator of metabolically active cells. IC50 values were calculated. […]
(§4) For a typical screening experiment to identify the compounds, cells were seeded into 96- or 384-well microtiter plates at plating densities pre-determined for each cell line to ensure drug exposure occurs during the proliferative phase well before confluency is reached. […] Values were calculated for each of these three parameters if the level of activity was reached; however, if the effect was not reached or was exceeded, the value for that parameter was expressed as greater or less than the maximum or minimum concentration tested.

[11] = system: c-Jun phosphorylation; experiment: Intracellular signaling molecule phospho-array; settings: human hyperproliferative GBM cancer cells; effect requiring 24 hours
Description: An intracellular signaling molecule phospho-array was performed in compound-treated human hyperproliferative GBM cancer cells and in vehicle-treated human hyperproliferative GBM cancer cells. The tested compounds included Compound DBM 228 (002-N8-28), Compound DBM 328 (003-8COOH), and Compound DBM 308 (003-8Cl). DMSO served as the vehicle control. The numbers reflect pairs of spots in the typical dot blots that correspond to major kinases and other signaling proteins. Compound DBM 328 (003-8COOH) is a negative control for this array experiment to complement the DMSO vehicle control.

[12] = system: SF-268; experiment: NCI 60 panel: SF-268 (CNS Cancer)
Description: as §5

[13] = system: TK-10; experiment: NCI 60 panel: TK-10 (Renal Cancer)
Description: as §5

[14] = system: CAKI-1; experiment: Complementary DBM in vitro profiling: CAKI-1 (Renal Cancer)
Description: as §1
as §2, with “This assay design holds for the data series presented below.” left out
as §3, §4

[15] = system: hyperproliferative PKD cells (cloned polycystic kidney tissue cells); experiment: Concentration-response in primary cultures cloned from cystic kidney tissue; settings: hyperproliferative PKD cells, 72 hour treatment
Description: The concentration-response effects of Compound DBM 228, Compound DBM 308, Compound DBM 101, and Compound DBM 328 were determined in primary cultures derived as ‘clones’ from cystic versus non-cystic kidney tissue. CRC graphs, IC50 values, and the percent maximum inhibition versus lowest doses without effect were calculated with GraphPad Prism software. […] There was also a marked separation in effect between hyperproliferative PKD cells (FIG. 5A and Table 3) and WT cells (FIG. 5B and Table 4).

[16] = system: UACC-62; experiment: NCI 60 panel: UACC-62 (Melanoma)
Description: as §5

[17] = system: MDA-MB-231; experiment: NCI 60 panel: MDA-MB-231 (Breast Cancer)
Description: as §5

[18] = system: NCI-H226; experiment: NCI 60 panel: NCI-H226 (Non-Small Cell Lung Cancer)
Description: as §5

[19] = system: MOLT-4; experiment: NCI 60 panel: MOLT-4 (Leukemia)
Description: as §5

[20] = read-out: LC50 (the source's name)

Which results are given for COc1ccccc1Nc1nc(-c2cc3cccc(N)c3oc2=O)cs1 [Compound DBM 228]?
GI50 [1]: 0.0889 µM; TGI [1]: 31 µM; CC50 [1, 20]: 99.3 µM; GI50 [2]: 0.9 µM; TGI [2]: 50.8 µM; CC50 [2, 20]: > 100 µM; effect on cells, in words ([3]; at and around the 1 micromolar dose): cytostatic plateau; effect on cells, in words ([3]; higher mid-micromolar concentrations): cytotoxic effect; effect on cells, in words ([3]; nanomolar ranges, 12-point CRC): growth arrested but not killed; GI50 [4]: 0.0468 µM; TGI [4]: 10.6 µM; CC50 [4, 20]: 35.7 µM; GI50 [5]: 0.0705 µM; TGI [5]: 13.4 µM; CC50 [5, 20]: > 100 µM; GI50 [6]: 0.592 µM; TGI [6]: 15.7 µM; CC50 [6, 20]: 51.9 µM; TGI [7]: 33.7 µM; CC50 [7, 20]: > 100 µM; GI50 [8]: 0.109 µM; TGI [8]: 0.85 µM; CC50 [8, 20]: 29.8 µM; GI50 [9]: 1.45 µM; TGI [9]: 24.7 µM; CC50 [9, 20]: > 100 µM; GI50 [10]: 0.845 µM; TGI [10]: >30 µM; CC50 [10, 20]: > 30 µM; effect on c-Jun phosphorylation, in words [11]: potentiation of c-Jun phosphorylation; GI50 [12]: 0.77 µM; TGI [12]: 55.3 µM; CC50 [12, 20]: > 100 µM; GI50 [13]: 10 µM; TGI [13]: 23.5 µM; CC50 [13, 20]: 55 µM; GI50 [14]: 0.142 µM; TGI [14]: 1.92 µM; CC50 [14, 20]: 5.21 µM; IC50 [15]: 0.69 µM; Max inhibition [15]: 61%; GI50 [16]: 0.0511 µM; LC50 (lethal concentration, 50% net cell kill) [16]: > 100 µM; TGI [16]: 28.2 µM; GI50 [17]: 1.37 µM; TGI [17]: 12 µM; CC50 [17, 20]: > 100 µM; GI50 [18]: 11.2 µM; TGI [18]: 37.2 µM; CC50 [18, 20]: > 100 µM; GI50 [19]: 0.168 µM; TGI [19]: 17.8 µM; CC50 [19, 20]: > 100 µM
